Experiments:
[1] = system: K-562; assay: Inhibition of cells growth by colorimetric (SRB) assay, K-562; details: for GI50 / CC50: Homo sapiens, K562, 48 h; for GI50: read-out: GI50 K-562, SRB assay, 48 hours exposure; for CC50: read-out: LC50 K-562, SRB assay, 48 hours exposure; for TGI K-562: SRB assay, 48 hours exposure
Procedure, shortened: (§1)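 Human tumour cells in RPMI 1640 with 10% FBS were seeded at 5×10^3 cells/well, allowed to attach for 18 h, then exposed to samples at 10 to 10^−8 μg/ml for 48 h. Growth was measured by SRB staining after TCA fixation, with absorbance read at 490 nm in triplicate wells.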

[2] = system: LNCaP; assay: Inhibition of cells growth by colorimetric (SRB) assay, LNCaP; details: for GI50 / CC50: Homo sapiens, LNCaP, 48 h; for GI50: read-out: GI50 LN-caP, SRB assay, 48 hours exposure; for CC50: read-out: LC50 LN-caP, SRB assay, 48 hours exposure; for TGI LN-caP: SRB assay, 48 hours exposure
Procedure, shortened: as §1

[3] = system: DU-145; assay: Inhibition of cells growth by colorimetric (SRB) assay, DU-145; details: for GI50 / CC50: Homo sapiens, DU-145, 48 h; for GI50: read-out: GI50 DU-145, SRB assay, 48 hours exposure; for CC50: read-out: LC50 DU-145, SRB assay, 48 hours exposure; for TGI DU-145: SRB assay, 48 hours exposure
Procedure, shortened: as §1

[4] = system: SK-MEL-28; assay: Inhibition of cells growth by colorimetric (SRB) assay, SK-MEL-28; details: for GI50 / CC50: Homo sapiens, SK-MEL-28, 48 h; for GI50: read-out: GI50 MEL-28, SRB assay, 48 hours exposure; for CC50: read-out: LC50 MEL-28, SRB assay, 48 hours exposure; for TGI MEL-28: SRB assay, 48 hours exposure
Procedure, shortened: as §1

[5] = system: PANC-1; assay: Inhibition of cells growth by colorimetric (SRB) assay, PANC-1; details: for GI50 / CC50: Homo sapiens, PANC-1, 48 h; for GI50: read-out: GI50 PANC-1, SRB assay, 48 hours exposure; for CC50: read-out: LC50 PANC-1, SRB assay, 48 hours exposure; for TGI PANC-1: SRB assay, 48 hours exposure
Procedure, shortened: as §1

[6] = system: IGROV-ET; assay: Inhibition of cells growth by colorimetric (SRB) assay, IGROV-ET; details: for GI50 / CC50: Homo sapiens, 48 h; for GI50: read-out: GI50 IGROV-ET, SRB assay, 48 hours exposure; for CC50: read-out: LC50 IGROV-ET, SRB assay, 48 hours exposure; for TGI IGROV-ET: SRB assay, 48 hours exposure
Procedure, shortened: as §1

[7] = system: A-549; assay: Inhibition of cells growth by colorimetric (SRB) assay, A-549; details: for GI50 / CC50: Homo sapiens, A549, 48 h; for GI50: read-out: GI50 A-549, SRB assay, 48 hours exposure; for CC50: read-out: LC50 A-549, SRB assay, 48 hours exposure; for TGI A-549: SRB assay, 48 hours exposure
Procedure, shortened: as §1

[8] = system: LoVo; assay: Inhibition of cells growth by colorimetric (SRB) assay, LoVo; details: for GI50 / CC50: Homo sapiens, LoVo, 48 h; for GI50: read-out: GI50 LOVO, SRB assay, 48 hours exposure; for CC50: read-out: LC50 LOVO, SRB assay, 48 hours exposure; for TGI LOVO: SRB assay, 48 hours exposure
Procedure, shortened: as §1

[9] = system: IGROV-1; assay: Inhibition of cells growth by colorimetric (SRB) assay, IGROV-1; details: for GI50 / CC50: Homo sapiens, IGROV-1, 48 h; for GI50: read-out: GI50 IGROV, SRB assay, 48 hours exposure; for CC50: read-out: LC50 IGROV, SRB assay, 48 hours exposure; for TGI IGROV: SRB assay, 48 hours exposure
Procedure, shortened: as §1

[10] = system: LoVo-Dox; assay: Inhibition of cells growth by colorimetric (SRB) assay, LoVo-Dox; details: for GI50 / CC50: Homo sapiens, 48 h; for GI50: read-out: GI50 LOVO-DOX, SRB assay, 48 hours exposure; for CC50: read-out: LC50 LOVO-DOX, SRB assay, 48 hours exposure; for TGI LOVO-DOX: SRB assay, 48 hours exposure
Procedure, shortened: as §1

[11] = system: SK-BR-3; assay: Inhibition of cells growth by colorimetric (SRB) assay, SK-BR-3; details: for GI50 / CC50: Homo sapiens, SK-BR-3, 48 h; for GI50: read-out: GI50 SK-BR-3, SRB assay, 48 hours exposure; for CC50: read-out: LC50 SK-BR-3, SRB assay, 48 hours exposure; for TGI SK-BR-3: SRB assay, 48 hours exposure
Procedure, shortened: as §1

[12] = system: HT-29; assay: Inhibition of cells growth by colorimetric (SRB) assay, HT-29; details: for GI50 / CC50: Homo sapiens, HT-29, 48 h; for GI50: read-out: GI50 HT-29, SRB assay, 48 hours exposure; for CC50: read-out: LC50 HT-29, SRB assay, 48 hours exposure; for TGI HT-29: SRB assay, 48 hours exposure
Procedure, shortened: as §1

[13] = system: HMEC1; assay: Inhibition of cells growth by colorimetric (SRB) assay, HMEC1; details: for GI50: Homo sapiens, HMEC-1, 48 h, read-out: GI50 H-MEC-1, SRB assay, 48 hours exposure; for TGI H-MEC-1: SRB assay, 48 hours exposure, in M (unit assumed)
[14] = as above; details: human, HMEC1 cells, LC50 H-MEC-1, SRB assay, 48 hours exposure
[15] = system: SK-OV-3; assay: Inhibition of cells growth by colorimetric (SRB) assay, SK-OV-3; details: for GI50 / CC50: Homo sapiens, SK-OV-3, 48 h; for GI50: read-out: GI50 SKOV-3, SRB assay, 48 hours exposure; for CC50: read-out: LC50 SKOV-3, SRB assay, 48 hours exposure; for TGI SKOV-3: SRB assay, 48 hours exposure
Procedure, shortened: as §1

Nc1nccc(-c2c3cccnc3n3ccccc23)n1 [Compound 56]
GI50 [1]: 8.23 µM
CC50 [1]: 38.3 µM
TGI K-562 [1]: 1.83E−05
GI50 [2]: 5.93 µM
CC50 [2]: 20.6 µM
TGI LN-caP [2]: 1.11E−05
GI50 [3]: 2.12 µM
CC50 [3]: 25.6 µM
TGI DU-145 [3]: 8.88E−06
GI50 [4]: 7.73 µM
CC50 [4]: 38.3 µM
TGI MEL-28 [4]: 1.73E−05
GI50 [5]: 8.96 µM
CC50 [5]: 38.3 µM
TGI PANC-1 [5]: 1.94E−05
GI50 [6]: 11.5 µM
CC50 [6]: 38.3 µM
TGI IGROV-ET [6]: 2.35E−05
GI50 [7]: 6.28 µM
CC50 [7]: 34.9 µM
TGI A-549 [7]: 1.48E−05
GI50 [8]: 6.74 µM
CC50 [8]: 38.3 µM
TGI LOVO [8]: 1.63E−05
GI50 [9]: 8.69 µM
CC50 [9]: 38.3 µM
TGI IGROV [9]: 1.91E−05
GI50 [10]: 5.93 µM
CC50 [10]: 38.3 µM
TGI LOVO-DOX [10]: 1.66E−05
GI50 [11]: 5.32 µM
CC50 [11]: 38.3 µM
TGI SK-BR-3 [11]: 1.88E−05
GI50 [12]: 12.5 µM
CC50 [12]: 38.3 µM
TGI HT-29 [12]: 3.46E−05
GI50 [13]: 3.9 µM
TGI H-MEC-1 [13]: 9.34E−06
CC50 at 48 h [14]: 22.3 µM
GI50 [15]: 7.12 µM
CC50 [15]: 35.5 µM
TGI SKOV-3 [15]: 1.59E−05

COc1ccc2nc3c(cc2c1)c(-c1ccnc(SC)n1)c1ccnc(N)n13 [Compound 18b]
GI50 [1]: ≥ 25.7 µM
CC50 [1]: ≥ 25.7 µM
TGI K-562 [1]: 2.57E−05
GI50 [2]: 16.6 µM
CC50 [2]: ≥ 25.7 µM
TGI LN-caP [2]: 2.57E−05
GI50 [3]: ≥ 25.7 µM
CC50 [3]: ≥ 25.7 µM
TGI DU-145 [3]: 2.57E−05
GI50 [4]: ≥ 25.7 µM
CC50 [4]: ≥ 25.7 µM
TGI MEL-28 [4]: 2.57E−05
GI50 [5]: 10.3 µM
CC50 [5]: ≥ 25.7 µM
TGI PANC-1 [5]: 2.57E−05
GI50 [6]: ≥ 25.7 µM
CC50 [6]: ≥ 25.7 µM
TGI IGROV-ET [6]: 2.57E−05
GI50 [7]: ≥ 25.7 µM
CC50 [7]: ≥ 25.7 µM
TGI A-549 [7]: 2.57E−05
GI50 [8]: ≥ 25.7 µM
CC50 [8]: ≥ 25.7 µM
TGI LOVO [8]: 2.57E−05
GI50 [9]: 20.8 µM
CC50 [9]: ≥ 25.7 µM
TGI IGROV [9]: 2.57E−05
GI50 [10]: ≥ 25.7 µM
CC50 [10]: ≥ 25.7 µM
TGI LOVO-DOX [10]: 2.57E−05
GI50 [11]: ≥ 25.7 µM
CC50 [11]: ≥ 25.7 µM
TGI SK-BR-3 [11]: 2.57E−05
GI50 [12]: ≥ 25.7 µM
CC50 [12]: ≥ 25.7 µM
TGI HT-29 [12]: 2.57E−05
GI50 [13]: 12.2 µM
TGI H-MEC-1 [13]: 1.69E−05
CC50 at 48 h [14]: 23.3 µM
GI50 [15]: ≥ 25.7 µM
CC50 [15]: ≥ 25.7 µM
TGI SKOV-3 [15]: 2.57E−05

Cl.Nc1nccc(-c2c3cccnc3n3c(N)nccc23)n1 [Compound 51]
GI50 [1]: 0.311 µM
CC50 [1]: 5.17 µM
TGI K-562 [1]: 4.03E−07
GI50 [2]: 0.0737 µM
CC50 [2]: 0.286 µM
TGI LN-caP [2]: 1.27E−07
GI50 [3]: 0.0654 µM
CC50 [3]: 2.7 µM
TGI DU-145 [3]: 1.48E−07
GI50 [4]: 0.0925 µM
CC50 [4]: 1.37 µM
TGI MEL-28 [4]: 2.69E−07
GI50 [5]: 0.161 µM
CC50 [5]: 28.6 µM
TGI PANC-1 [5]: 2.73E−06
GI50 [6]: 0.0748 µM
CC50 [6]: 18.6 µM
TGI IGROV-ET [6]: 2.25E−07
GI50 [7]: 0.0999 µM
CC50 [7]: 4.57 µM
TGI A-549 [7]: 3.68E−07
GI50 [8]: 0.0774 µM
CC50 [8]: 16 µM
TGI LOVO [8]: 1.84E−07
GI50 [9]: 0.0851 µM
CC50 [9]: 2.12 µM
TGI IGROV [9]: 3.28E−07
GI50 [10]: 0.078 µM
CC50 [10]: 17.9 µM
TGI LOVO-DOX [10]: 2.86E−07
GI50 [11]: 0.0591 µM
CC50 [11]: 0.554 µM
TGI SK-BR-3 [11]: 1.42E−07
GI50 [12]: 0.101 µM
CC50 [12]: 28.6 µM
TGI HT-29 [12]: 2.86E−07
GI50 [13]: 0.0164 µM
TGI H-MEC-1 [13]: 1.54E−08
CC50 at 48 h [14]: 0.143 µM
GI50 [15]: 0.146 µM
CC50 [15]: 28.6 µM
TGI SKOV-3 [15]: 2.15E−06

Source: patent US7772241B2, “Variolin derivatives and their use as antitumor agents” (Pharma Mar S.A., priority 2001, dated 2010)
